Results taken from US8349889B2, “Skin-care preparations containing mupirocin and betamethasone dipropionate” (Laboratorios Dermatologicos Darier, S.A. DE C.V., priority 2005, dated 2013).
Where “and” joins values, the source holds several entries; their conditions need not be identical. Equal entries are not always repeated.

Assays:
[1] = Incompatibility tests, active evaluation immediately after preparation; type: physicochemical; design: unit not given here; conditions: for Active evaluation, Test 1: actives + PEG 40 hydrogenated castor oil, analysed immediately after preparation; for Active evaluation, Test 2: as Test 1 + butyl hydroxy toluene; for Active evaluation, Test 3: as Test 2 + propyl paraben; for Active evaluation, Test 4: as Test 3 + methyl paraben; for Active evaluation, Test 5: as Test 4 + glycerin; for Active evaluation, Test 6: as Test 5 + mineral oil; for Active evaluation, Test 7: as Test 6 + white petrolatum
Procedure: In order to test the possible incompatibility of mupirocin with one of the excipients the following tests reported in Table No. 4 were performed and the results are the following: [table]

[2] = Active evaluation (USP23 NF/21) of polyethylene glycol based formula, three samples; type: physicochemical; conditions: formula with PEG 40 hydrogenated castor oil, polyethylene glycol 600, PEG 150 distearate, methyl paraben; Samples 1-3; specification 90.0 to 110.0%
Procedure: Taking the experience that mupirocin and betamethasone dipropionate are soluble at 60° C. in PEG 40 hydrogenated castor oil and in polyethylene glycol 600 (according to Table No. 2), a formulation having the following ingredients is proposed: mupirocin and betamethasone dipropionate (active ingredients), PEG 40 hydrogenated castor oil (cosolvent), polyethylene glycol 600 (balance excipient or carrier), PEG 150 distearate (thickener) and methyl paraben (preservative). The manufacturing process was the following: In an appropriate size vessel the polyethylene glycol 600 and PEG 40 hydrogenated castor oil were placed, this mixture was heated up to a temperature of 70° C. and then the methyl paraben, mupirocin and betamethasone dipropionate were dissolved; once all the above ingredients were dissolved, the temperature was lowered with constant mixing until reaching 60° C.; it was then added the PEG 150 distearate and continued mixing until the mixture was homogenous; the final product was obtained after lowering the temperature with constant mixing until reaching ambient temperature.
(§1) Once the product was obtained three samples were analyzed, collected from different parts of the vessel containing the product, by Active Evaluation techniques reported for each of them in the individual monographs included in USP23 NF/21.

[3] = Active evaluation (USP23 NF/21) of white petrolatum ointment base formula, three samples; type: physicochemical; conditions: Samples 1-3 from different parts of the vessel, specification 90.0 to 110.0%
Procedure: As for the ointment base determination, an ointment base having the following components was tested: white petrolatum (carrier), NF 85 mineral oil (texture and appearance modifier), PEG 40 hydrogenated castor oil (solvent), glycerin (moistener), butyl hydroxy toluene (antioxidant), methyl paraben and propyl paraben (preservatives), mupirocin and betamethasone dipropionate (active ingredients). The manufacture process was the following: In an appropriate size vessel the white petrolatum, mineral oil and glycerin were placed, this mixture was heated up to a temperature of 75° C. and then the butyl hydroxy toluene with the parabens was dissolved; separately in other suitable size vessel the PEG 40 hydrogenated castor oil was placed, heated up to a 60° C. temperature and mupirocin and betamethasone dipropionate were solved therein; when both mixtures were at 60° C. they were mixed and the final product was obtained after lowering the temperature with constant mixing until reaching ambient temperature.
as §1

[4] = Simple incorporation of the active in white petrolatum at 60° C.; type: physicochemical; conditions: incorporated in white petrolatum at 60° C.; cream color gummy hard precipitate forms
Procedure: According to the results it can be concluded that mupirocin in the presence of white petrolatum undergoes a possible chemical degrading. It then followed a simple incorporation of the active in the white petrolatum at a temperature of 60° C. and it was seen that immediately a cream color precipitate forms having a gummy appearance and hard. […] Therefore, this ointment base with mupirocin is discarded.

[5] = Bactericide action tests; conditions: at the concentrations obtained in a 2% topical formulation

SMILES	Active evaluation, Test 1 [1]	Active evaluation, Test 2 [1]	Active evaluation, Test 3 [1]	Active evaluation, Test 4 [1]	Active evaluation, Test 5 [1]	Active evaluation, Test 6 [1]	Active evaluation, Test 7 [1]	Evaluation Results [2]	Evaluation Results [3]	Compatibility with white petrolatum [4]	bactericide action [5]
CCC(=O)OCC(=O)[C@@]1(OC(=O)CC)[C@@H](C)C[C@H]2[C@@H]3CCC4=CC(=O)C=C[C@]4(C)[C@@]3(F)[C@@H](O)C[C@@]21C [Betamethasone dipropionate]	100.2	100.3	100.2	99.8	100.2	100.4	99.3	99.8% and 100.3% and 100.1%	100.6% and 100.2%		
C/C(=C\C(=O)OCCCCCCCCC(=O)O)C[C@@H]1OC[C@H](C[C@@H]2O[C@H]2[C@@H](C)[C@H](C)O)[C@@H](O)[C@H]1O [Mupirocin]	98.8	99.3	98.7	98.9	99.0	98.8	69.8	98.7% and 99.1% and 99.4%	70.5% and 71.2% and 70.7%	incompatible with white petrolatum	has bactericide action
